We go through 23 molecules from PubChem BioAssay (NCI).

The structures appear in SMILES notation.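 Following 48 hours of exposure in 96-well plates, responses at five concentrations were used to interpolate endpoints linearly. Here, GI50 denotes the concentration required for 50% inhibition of growth. At the TGI there is no net growth.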

The test system of the first assay is A549 NSCLC. The assay can be described thus: DTP human tumour cell line panel, 48 h.
The molecule `Cc1ccc(C2(O)CC(c3ccc([N+](=O)[O-])o3)=NN2C(=O)COc2ccc(Cl)cc2)cc1` (stereo unspecified) displayed a TGI of 56.4 µM.
`CC1=NN(C(=O)CC(=O)N(C(=O)c2ccccc2Cl)c2ccc(C)cc2)C(=O)C1N=Nc1ccc([N+](=O)[O-])cc1` (stereo unspecified) showed a TGI greater than 67.7 µM.
As to `COc1cccc(-n2c3nc(=O)n(C)c(=O)c-3nc3ccccc32)c1`, the TGI stood at 52.2 µM.
`CC(C)(C=O)CC(C#N)/C(=N\NC(N)=O)C(=O)Nc1ccccc1C(N)=O` (stereo unspecified) gave a TGI greater than 100 µM.
In turn, `Cc1cc(C)c(C2[C@H]3C(=O)N(c4ccc(Cc5ccc(N6C(=O)[C@@H]7ON(c8ccccc8)C(c8c(C)cc(C)cc8C)[C@@H]7C6=O)cc5)cc4)C(=O)[C@H]3ON2c2ccccc2)c(C)c1` (stereo partly specified) yielded a concentration for total growth inhibition (TGI) greater than 100 µM.
In the case of `COC(=O)OCC1OC(N2C(=O)NC(=O)C(Br)C2N=[N+]=[N-])CC1OC(=O)OC` (stereo unspecified), the concentration for total growth inhibition (TGI) was greater than 100 µM.
The molecule `CC12CCCCC1(C)C2Sc1ccccc1` (stereo unspecified) returned a TGI greater than 100 µM.
Consider `CCCCOC(=O)NC(=O)c1cn(CCCOC(=O)NCCCCCCNC(=O)OCCCn2cc(C(=O)NC(=O)OCCCC)c(=O)[nH]c2=O)c(=O)[nH]c1=O`, for which the total growth inhibition concentration (TGI) was greater than 100 µM.
Turning to `COc1cc(C)c2c(c1C)OC(=O)c1c(C)c(Cl)c(O)c(C=O)c1O2`, the TGI came to 44.3 µM.
`Nc1ccn(C2(CO)C=C(CO)C(O)C2O)c(=O)n1` (stereo unspecified) yielded a TGI greater than 25.8 µM.
`C=C1C[C@]23CCC4C(C)(C)C(=O)CC[C@]4(C)C2C[C@H]1C(O)C3=O` (stereo partly specified) had a TGI greater than 75 µM.
Take `Cc1ccc(S(=O)(=O)NCCNc2nccc(-c3c(-c4ccc(F)cc4)nc4sccn34)n2)cc1`: the GI50 is 3.44 µM and the TGI was greater than 100 µM.
Take `N.N.N.N.[Cl-].[Co+3].[N-]=[N+]=[N-].[N-]=[N+]=[N-]`: the GI50 was greater than 100 µM and the TGI was greater than 100 µM.
For `CC(C)CCCC(C)[C@H]1CCC2[C@H]3C(CC[C@@]21C)[C@@]1(C)CCC=C[C@]12C[C@@H]2[C@@H]3O` (stereo partly specified), the concentration for total growth inhibition (TGI) is greater than 100 µM.
Regarding `Cc1cc(NS(=O)(=O)c2ccc(Nc3c4ccccc4nc4c(C(=O)NCCN(C)C)cccc34)cc2)no1`, the concentration for total growth inhibition (TGI) is 71 µM.
As for `Nc1nc(CCl)nc(Nc2ccccc2)n1`, the TGI came to 79.4 µM.
`O=S1OC2(c3ccccc3-c3ccccc32)c2ccccc21` (stereo unspecified) had a TGI greater than 100 µM.
Molecule `CCOC(=N)CC(=O)Nc1cccc(C)c1C` displayed a TGI greater than 100 µM.

Another assay deals with OVCAR-8 ovarian. The assay can be described thus: DTP human tumour cell line panel, 48 h.
For the molecule `COc1cc2ccc3c4cc(OC)c(OC(C)C)cc4cnc3c2cc1OC`, the TGI is greater than 100 µM.
`CN1NC(=Nc2ccccc2)Sc2c1cnn(-c1ccccc1)c2=O` gave a TGI greater than 100 µM.
Take `C1C[OH+]CCNCC[OH+]CC[OH+]CCN1.[Cl-].[Pt+4]`: the GI50 is greater than 100 µM and the TGI is greater than 100 µM.
Take `CC(=O)c1sc(-c2nc(C)c(C(=O)/C=C\c3ccc(/C=C\C(=O)c4sc(-c5nc(C)c(C(C)=O)s5)nc4C)cc3)s2)nc1C`: the TGI is greater than 100 µM.
Molecule `COC(=O)/C(C)=C/[N+](=O)[O-]` showed a TGI of 63.3 µM.
On the same count and under the same terms, under `Cc1ccc(C2(O)CC(c3ccc([N+](=O)[O-])o3)=NN2C(=O)COc2ccc(Cl)cc2)cc1` (stereo unspecified) stands 20.3 µM.
For `CC1=NN(C(=O)CC(=O)N(C(=O)c2ccccc2Cl)c2ccc(C)cc2)C(=O)C1N=Nc1ccc([N+](=O)[O-])cc1` (stereo unspecified), the TGI stood at 78.1 µM.
`COc1cccc(-n2c3nc(=O)n(C)c(=O)c-3nc3ccccc32)c1` gave a TGI of 49.6 µM.
Still for that read-out and setting: under `CC(C)(C=O)CC(C#N)/C(=N\NC(N)=O)C(=O)Nc1ccccc1C(N)=O` (stereo unspecified) stands greater than 100 µM; under `Cc1cc(C)c(C2[C@H]3C(=O)N(c4ccc(Cc5ccc(N6C(=O)[C@@H]7ON(c8ccccc8)C(c8c(C)cc(C)cc8C)[C@@H]7C6=O)cc5)cc4)C(=O)[C@H]3ON2c2ccccc2)c(C)c1` (stereo partly specified), greater than 100 µM; under `COC(=O)OCC1OC(N2C(=O)NC(=O)C(Br)C2N=[N+]=[N-])CC1OC(=O)OC` (stereo unspecified), greater than 100 µM.
On the same count and under the same terms, under `CC12CCCCC1(C)C2Sc1ccccc1` (stereo unspecified) stands greater than 100 µM; under `CCCCOC(=O)NC(=O)c1cn(CCCOC(=O)NCCCCCCNC(=O)OCCCn2cc(C(=O)NC(=O)OCCCC)c(=O)[nH]c2=O)c(=O)[nH]c1=O`, greater than 100 µM; under `COc1cc(C)c2c(c1C)OC(=O)c1c(C)c(Cl)c(O)c(C=O)c1O2`, 27.4 µM.
Still for that read-out and setting: under `Nc1ccn(C2(CO)C=C(CO)C(O)C2O)c(=O)n1` (stereo unspecified) stands greater than 25.8 µM.
As for `C=C1C[C@]23CCC4C(C)(C)C(=O)CC[C@]4(C)C2C[C@H]1C(O)C3=O` (stereo partly specified), the TGI is greater than 75 µM.
In the case of `Cc1ccc(S(=O)(=O)NCCNc2nccc(-c3c(-c4ccc(F)cc4)nc4sccn34)n2)cc1`, the GI50 was 5 µM and the TGI stood at 53.8 µM.
Regarding `N.N.N.N.[Cl-].[Co+3].[N-]=[N+]=[N-].[N-]=[N+]=[N-]`, the GI50 is greater than 100 µM and the TGI was greater than 100 µM.
In turn, `CC(C)CCCC(C)[C@H]1CCC2[C@H]3C(CC[C@@]21C)[C@@]1(C)CCC=C[C@]12C[C@@H]2[C@@H]3O` (stereo partly specified) showed a TGI greater than 100 µM.
The molecule `Cc1cc(NS(=O)(=O)c2ccc(Nc3c4ccccc4nc4c(C(=O)NCCN(C)C)cccc34)cc2)no1` displayed a TGI greater than 100 µM.
Regarding `Nc1nc(CCl)nc(Nc2ccccc2)n1`, the TGI is greater than 100 µM.
As for `O=S1OC2(c3ccccc3-c3ccccc32)c2ccccc21` (stereo unspecified), the TGI was greater than 100 µM.
Molecule `CCOC(=N)CC(=O)Nc1cccc(C)c1C` yielded a TGI greater than 100 µM.

In another assay the test system is HL-60(TB) leukemia. In words: DTP human tumour cell line panel, 48 h.
Turning to `COc1cc2ccc3c4cc(OC)c(OC(C)C)cc4cnc3c2cc1OC`, the TGI was greater than 100 µM.
On to `CN1NC(=Nc2ccccc2)Sc2c1cnn(-c1ccccc1)c2=O`, for which the TGI is greater than 100 µM.
Regarding `C1C[OH+]CCNCC[OH+]CC[OH+]CCN1.[Cl-].[Pt+4]`, the GI50 was greater than 100 µM and the TGI is greater than 100 µM.
With `CC(=O)c1sc(-c2nc(C)c(C(=O)/C=C\c3ccc(/C=C\C(=O)c4sc(-c5nc(C)c(C(C)=O)s5)nc4C)cc3)s2)nc1C`, the TGI is greater than 100 µM.
The molecule `COC(=O)/C(C)=C/[N+](=O)[O-]` yielded a total growth inhibition concentration (TGI) of 40.1 µM.
Molecule `CC1=NN(C(=O)CC(=O)N(C(=O)c2ccccc2Cl)c2ccc(C)cc2)C(=O)C1N=Nc1ccc([N+](=O)[O-])cc1` (stereo unspecified) returned a TGI greater than 68.8 µM.
Consider `COc1cccc(-n2c3nc(=O)n(C)c(=O)c-3nc3ccccc32)c1`, for which the total growth inhibition concentration (TGI) came out at 28.2 µM.
With `CC(C)(C=O)CC(C#N)/C(=N\NC(N)=O)C(=O)Nc1ccccc1C(N)=O` (stereo unspecified), the TGI was greater than 100 µM.
Consider `Cc1cc(C)c(C2[C@H]3C(=O)N(c4ccc(Cc5ccc(N6C(=O)[C@@H]7ON(c8ccccc8)C(c8c(C)cc(C)cc8C)[C@@H]7C6=O)cc5)cc4)C(=O)[C@H]3ON2c2ccccc2)c(C)c1` (stereo partly specified), for which the TGI was greater than 100 µM.
For the molecule `CC12CCCCC1(C)C2Sc1ccccc1` (stereo unspecified), the TGI came out at 36.9 µM.
Turning to `CCCCOC(=O)NC(=O)c1cn(CCCOC(=O)NCCCCCCNC(=O)OCCCn2cc(C(=O)NC(=O)OCCCC)c(=O)[nH]c2=O)c(=O)[nH]c1=O`, the TGI was greater than 100 µM.
In turn, `COc1cc(C)c2c(c1C)OC(=O)c1c(C)c(Cl)c(O)c(C=O)c1O2` had a TGI of 22 µM.
With `Nc1ccn(C2(CO)C=C(CO)C(O)C2O)c(=O)n1` (stereo unspecified), the TGI is greater than 25.8 µM.
On to `C=C1C[C@]23CCC4C(C)(C)C(=O)CC[C@]4(C)C2C[C@H]1C(O)C3=O` (stereo partly specified), for which the TGI was greater than 75 µM.
As to `N.N.N.N.[Cl-].[Co+3].[N-]=[N+]=[N-].[N-]=[N+]=[N-]`, the GI50 was 74.3 µM and the TGI was greater than 100 µM.
`CC(C)CCCC(C)[C@H]1CCC2[C@H]3C(CC[C@@]21C)[C@@]1(C)CCC=C[C@]12C[C@@H]2[C@@H]3O` (stereo partly specified) yielded a TGI greater than 100 µM.
`Cc1cc(NS(=O)(=O)c2ccc(Nc3c4ccccc4nc4c(C(=O)NCCN(C)C)cccc34)cc2)no1` gave a TGI of 0.472 µM.
Still for that read-out and setting: under `Nc1nc(CCl)nc(Nc2ccccc2)n1` stands 11.2 µM.
`O=S1OC2(c3ccccc3-c3ccccc32)c2ccccc21` (stereo unspecified) registered a TGI greater than 100 µM.
In turn, `CCOC(=N)CC(=O)Nc1cccc(C)c1C` returned a TGI greater than 100 µM.

In a further assay the test system is SNB-75 CNS. The assay can be described thus: DTP human tumour cell line panel, 48 h.
On to `COc1cc2ccc3c4cc(OC)c(OC(C)C)cc4cnc3c2cc1OC`, for which the TGI was greater than 100 µM.
With `C1C[OH+]CCNCC[OH+]CC[OH+]CCN1.[Cl-].[Pt+4]`, the GI50 is greater than 100 µM and the TGI was greater than 100 µM.
Regarding `COC(=O)/C(C)=C/[N+](=O)[O-]`, the TGI was found to be 30.1 µM.
As to `Cc1ccc(C2(O)CC(c3ccc([N+](=O)[O-])o3)=NN2C(=O)COc2ccc(Cl)cc2)cc1` (stereo unspecified), the TGI is greater than 48.3 µM.
Take `CC1=NN(C(=O)CC(=O)N(C(=O)c2ccccc2Cl)c2ccc(C)cc2)C(=O)C1N=Nc1ccc([N+](=O)[O-])cc1` (stereo unspecified): the TGI is greater than 72 µM.
For `COc1cccc(-n2c3nc(=O)n(C)c(=O)c-3nc3ccccc32)c1`, the TGI turned out to be 76.2 µM.
Turning to `Cc1cc(C)c(C2[C@H]3C(=O)N(c4ccc(Cc5ccc(N6C(=O)[C@@H]7ON(c8ccccc8)C(c8c(C)cc(C)cc8C)[C@@H]7C6=O)cc5)cc4)C(=O)[C@H]3ON2c2ccccc2)c(C)c1` (stereo partly specified), the TGI was greater than 100 µM.
Molecule `COC(=O)OCC1OC(N2C(=O)NC(=O)C(Br)C2N=[N+]=[N-])CC1OC(=O)OC` (stereo unspecified) gave a TGI greater than 100 µM.
Take `CC12CCCCC1(C)C2Sc1ccccc1` (stereo unspecified): the concentration for total growth inhibition (TGI) was greater than 100 µM.
Still for that read-out and setting: under `CCCCOC(=O)NC(=O)c1cn(CCCOC(=O)NCCCCCCNC(=O)OCCCn2cc(C(=O)NC(=O)OCCCC)c(=O)[nH]c2=O)c(=O)[nH]c1=O` stands greater than 100 µM.
The molecule `COc1cc(C)c2c(c1C)OC(=O)c1c(C)c(Cl)c(O)c(C=O)c1O2` gave a TGI of 46.8 µM.
The same measure, in the same setting: under `Nc1ccn(C2(CO)C=C(CO)C(O)C2O)c(=O)n1` (stereo unspecified) stands greater than 25.8 µM.
Take `C=C1C[C@]23CCC4C(C)(C)C(=O)CC[C@]4(C)C2C[C@H]1C(O)C3=O` (stereo partly specified): the TGI is greater than 75 µM.
Take `Cc1ccc(S(=O)(=O)NCCNc2nccc(-c3c(-c4ccc(F)cc4)nc4sccn34)n2)cc1`: the GI50 is 2.65 µM and the TGI worked out at 15 µM.
In the case of `N.N.N.N.[Cl-].[Co+3].[N-]=[N+]=[N-].[N-]=[N+]=[N-]`, the GI50 is greater than 100 µM and the TGI is greater than 100 µM.
`CC(C)CCCC(C)[C@H]1CCC2[C@H]3C(CC[C@@]21C)[C@@]1(C)CCC=C[C@]12C[C@@H]2[C@@H]3O` (stereo partly specified) had a TGI greater than 100 µM.
On the same count and under the same terms, under `Cc1cc(NS(=O)(=O)c2ccc(Nc3c4ccccc4nc4c(C(=O)NCCN(C)C)cccc34)cc2)no1` stands 21 µM.
`Nc1nc(CCl)nc(Nc2ccccc2)n1`: the TGI was 50.3 µM.
Molecule `O=S1OC2(c3ccccc3-c3ccccc32)c2ccccc21` (stereo unspecified) showed a TGI greater than 100 µM.
Molecule `CCOC(=N)CC(=O)Nc1cccc(C)c1C` yielded a TGI greater than 100 µM.

One may read the TGI as the concentration at which net growth stops. A low value points to more potent growth arrest. Usually GI50 stands for the concentration that inhibits growth by half.
